Where two headings read alike, the source gives them in different places.
Key:
CDC25B [1] = target: T1, CDC25B (Homo sapiens, UniProt P30305); assay: Residual phosphatase activity of recombinant CDC25B, fluorimetric OMFP assay; assay type: biochemical; conditions: for remaining activity at 0.2 µM: 0.2 μM inhibitor; for remaining activity at 0.2 µM / remaining activity at 1 µM: 10 nM CDC25B, 25 μM OMFP, read-out: CDC25B residual activity (%) in the presence of [inhibitor]; for remaining activity at 1 µM: 1 μM inhibitor; for inhibition of the CDC25B phosphatase activity (in words): two inhibitor concentrations, 0.2 and 1 μM
T1 construct: Recombinant forms of the catalytic domains of CDC25A, -B and -C were obtained through the vectors pET28a-CDC25A-cd, pET28a-CDC25B-cd and pET28a-CDC25C-cd; made in house
T1 sequence (P30305 431-538 limits assumed): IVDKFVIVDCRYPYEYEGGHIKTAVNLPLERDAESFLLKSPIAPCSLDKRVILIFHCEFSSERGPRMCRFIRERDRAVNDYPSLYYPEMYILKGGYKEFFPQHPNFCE
Method: Among the twenty-five structures identified from the multiple ligand-based chemoinformatic approach, eight compounds (2, 10, 12–14, and 16–18) were excluded from the analysis, because endowed with a strong fluorescent signal, which interfered with the emission wavelength of the synthetic substrate 3-O-methylfluorescein phosphate (OMFP) used in the fluorimetric assay. The inhibition of the phosphatase activity of CDC25B by the remaining seventeen analogs was evaluated in the presence of two different concentrations of these compounds (Table 2). […] For this reason, only one of these latter compounds, i.e. 3, was included in the following analysis.
The enzymatic activity of the catalytic domains of CDC25A, -B and -C were determined through a fluorimetric method, which monitored the dephosphorylation of the synthetic substrate OMFP, essentially as previously described. In steady-state enzyme kinetic studies, the residual phosphatase activity of purified recombinant CDC25B was measured at 30°C in the presence of different concentrations of the various inhibitors, using a computer-assisted Cary Eclipse spectrofluorimeter (Varian) equipped with an electronic temperature controller. Excitation and emission wavelengths were set at 485 and 530 nm, respectively; both excitation and emission slits were set at 10 nm. The reaction mixture contained 10 nM CDC25B and different concentrations of the various inhibitors in 500 μL final volume of 20 mM Tris-HCl, pH 7.8, 1 mM DTT. DMSO was used as vehicle control. The reaction started by the addition of 25 μM OMFP, and the formation of the fluorescent product o-methylfluorescein was monitored continuously. The rate of OMFP hydrolysis was expressed as arbitrary units per min (a.u./min). The comparison of the rates determined in the absence and in the presence of the various inhibitors allowed the calculation of the residual phosphatase activity, expressed as a percentage.

CDC25A = target: T2, CDC25A (Homo sapiens, UniProt P30304); assay: Ki from OMFP hydrolysis kinetics (Lineweaver-Burk), CDC25A; assay type: biochemical
T2 construct: Recombinant forms of the catalytic domains of CDC25A, -B and -C were obtained through the vectors pET28a-CDC25A-cd, pET28a-CDC25B-cd and pET28a-CDC25C-cd; made in house
T2 sequence (P30304 376-482 limits assumed): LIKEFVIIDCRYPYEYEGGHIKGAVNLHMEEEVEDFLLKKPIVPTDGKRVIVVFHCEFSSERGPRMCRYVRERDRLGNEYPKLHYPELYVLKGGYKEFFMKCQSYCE
Method: (§1) To measure the inhibition constant (Ki) of the recombinant forms of CDC25A, -B and -C towards the various inhibitors, the affinity of the different forms of CDC25 towards OMFP was measured either in the absence or in the presence of fixed concentrations of the various inhibitors. The reaction mixture contained 20 nM CDC25A, or 10 nM CDC25B, or 40 nM CDC25C, and different concentrations of the various inhibitors in 500 μL final volume of 20 mM Tris-HCl, pH 7.8, 1 mM DTT. DMSO was used as vehicle control. […] The corresponding Lineweaver-Burk plots allowed the calculation of the KM for OMFP and of the Vmax of OMFP hydrolysis, expressed as a.u./minmax. […] The Ki values were obtained from the decrease of a.u./minmax in the presence of the inhibitor, according to the equation a.u./mimmax’ = a.u./mimmax/{1 + ([I]/Ki)}, where a.u./mimmax’ represents the Vmax measured in the presence of the concentration [I] of the inhibitor. The Ki values were obtained from at least three independent experiments and reported as mean ± S.E.

CDC25B [2] = target: T1, CDC25B; assay: Ki from OMFP hydrolysis kinetics (Lineweaver-Burk), CDC25B; assay type: biochemical; conditions: 10 nM CDC25B, 1–25 μM OMFP; mean ± S.E.
Method: To measure the inhibition constant (Ki) of the recombinant forms of CDC25A, -B and -C towards the various inhibitors, the affinity of the different forms of CDC25 towards OMFP was measured either in the absence or in the presence of fixed concentrations of the various inhibitors. The reaction mixture contained 20 nM CDC25A, or 10 nM CDC25B, or 40 nM CDC25C, and different concentrations of the various inhibitors in 500 μL final volume of 20 mM Tris-HCl, pH 7.8, 1 mM DTT. DMSO was used as vehicle control. The reaction started by the addition of 1–25 μM OMFP, and the rate of OMFP hydrolysis was measured as indicated before. The corresponding Lineweaver-Burk plots allowed the calculation of the KM for OMFP and of the Vmax of OMFP hydrolysis, expressed as a.u./minmax. […] The Ki values were obtained from the decrease of a.u./minmax in the presence of the inhibitor, according to the equation a.u./mimmax’ = a.u./mimmax/{1 + ([I]/Ki)}, where a.u./mimmax’ represents the Vmax measured in the presence of the concentration [I] of the inhibitor. The Ki values were obtained from at least three independent experiments and reported as mean ± S.E.

CDC25C = target: T3, CDC25C (Homo sapiens, UniProt P30307); assay: Ki from OMFP hydrolysis kinetics (Lineweaver-Burk), CDC25C; assay type: biochemical
T3 construct: Recombinant forms of the catalytic domains of CDC25A, -B and -C were obtained through the vectors pET28a-CDC25A-cd, pET28a-CDC25B-cd and pET28a-CDC25C-cd; made in house
T3 sequence (P30307 321-428 limits assumed): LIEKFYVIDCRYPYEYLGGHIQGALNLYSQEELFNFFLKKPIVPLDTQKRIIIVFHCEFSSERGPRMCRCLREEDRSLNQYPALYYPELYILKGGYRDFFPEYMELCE
Method: as §1

A2058 cells = assay: MTT cell growth rate, A2058 melanoma cells; assay type: cell-based, human; conditions: A2058, 100 μM, 48 h, MTT
Method: (§2) The human melanoma cell line A2058, kindly provided by CEINGE (Naples, Italy), and SAN cells were derived from lymph nodal metastases and grown in DMEM and RPMI 1640, respectively, supplemented with 10% FBS, 2 mM L-glutamine, 100 IU/mL penicillin G, and 100 μg/mL streptomycin in humidified incubator at 37°C under 5% CO2 atmosphere. All cells were split and seeded every three days and used during the exponential phase of growth. Cell treatments were always carried after 24 h from plating.
(§3) The MTT assay was used to detect cell proliferation essentially as previously described. Briefly, A2058 and SAN cells were plated in 96-well microtiter plates (100 μL/well) at 4000 and 6000 cells/well, respectively. After 24-h seeding, cells were treated with the selected compounds added at 25, 50 or 100 μM concentration, or with 0.5% (v/v) DMSO as a vehicle control. After 24-h, 48-h or 72-h treatment, and upon the addition of 10 μL of MTT solution in the dark, the plate was incubated for 3 h at 37°C under CO2 atmosphere. After medium aspiration and solubilization of formazan crystals, absorbance was measured at 570 nm, using an ELISA plate reader (Bio-Rad, Milano, Italy).

SAN cells = assay: MTT cell growth rate, SAN melanoma cells; assay type: cell-based, human; conditions: 100 μM, 48 h, MTT
Method: as §2, §3

[3] = 20 nM CDC25A, 1–25 μM OMFP, mean ± S.E., read-out: Ki CDC25A
[4] = 40 nM CDC25C, 1–25 μM OMFP, mean ± S.E., read-out: Ki CDC25C

Row | SMILES | remaining activity at 0.2 µM (CDC25B [1]) | remaining activity at 1 µM (CDC25B [1]) | inhibition of the CDC25B phosphatase activity (in words) (CDC25B [1]) | Ki (CDC25A; [3]) | Ki (CDC25B [2]) | Ki (CDC25C; [4]) | cell growth rate (A2058 cells) | cell growth rate (SAN cells) | Ki (CDC25A) | Ki (CDC25C)
1 | Cc1c2ccc(=O)cc-2oc2cc(O)ccc12 [Compound 1] | 76% | 9% | measurable inhibition of the phosphatase activity, only when added at the highest concentration |  |  |  |  |  |  | 
2 | O=C(O)c1c2ccc(=O)cc-2oc2cc(O)ccc12 [Compound 3] | 85% | 62% | measurable inhibition of the phosphatase activity, only when added at the highest concentration | 280 ± 90 nM | 2400 ± 390 nM | 4400 ± 620 nM | failure | failure |  | 
3 | O=C(O)C1[C@H]2C=C[C@H](C2)[C@H]1c1c2ccc(=O)c(O)c-2oc2c(O)c(O)ccc12 (stereo partly drawn) [Compound 24, (1R,3R,4S)-3-(4,5,6-trihydroxy-3-oxo-3H-xanthen-9-yl)bicyclo[2.2.1]hept-5-ene-2-carboxylic acid] | 22% | 3% |  |  | 300 ± 80 nM |  |  | significant reduction of cell growth rate | 10 ± 5 nM | 400 ± 110 nM
4 | O=C(O)/C=C/c1c2ccc(=O)c(O)c-2oc2c(O)c(O)ccc12 [Compound 6, (E)-3-(4,5,6-trihydroxy-3-oxo-3H-xanthen-9-yl)acrylic acid] | 14% | 2% |  | 100 ± 30 nM | 1100 ± 370 nM | 1000 ± 410 nM |  | significant reduction of cell growth rate |  | 
5 | O=C(O)C1C(c2c3ccc(=O)c(O)c-3oc3c(O)c(O)ccc23)C2(Cl)C(Cl)=C(Cl)C1(Cl)C2(Cl)Cl (centres unmarked) [Compound 25] | 24% | 1% |  | 400 ± 150 nM | 1100 ± 400 nM | 960 ± 380 nM | failure | failure |  | 
6 | CN(C)c1ccc(-c2c3cc(O)c(=O)cc-3oc3cc(O)c(O)cc23)cc1 [Compound 22] | 80% | 0% | measurable inhibition of the phosphatase activity, only when added at the highest concentration |  |  |  |  |  |  | 
7 | O=C(O)c1ccccc1-c1c2cc([N+](=O)[O-])c(=O)c(Br)c-2oc2c(Br)c(O)c([N+](=O)[O-])cc12 [Compound 19] | 86% | 70% | measurable inhibition of the phosphatase activity, only when added at the highest concentration |  |  |  |  |  |  | 
8 | O=c1cc2oc3cc(O)c(O)cc3c(-c3ccccc3)c-2cc1O [Compound 9] | 9% | 0% |  | 800 ± 310 nM | 440 ± 200 nM | 1500 ± 480 nM | failure | failure |  | 
9 | O=c1ccc2c(-c3ccccc3S(=O)(=O)O)c3ccc(O)c(O)c3oc-2c1O [Compound 20] | 91% | 24% | measurable inhibition of the phosphatase activity, only when added at the highest concentration |  |  |  |  |  |  | 
10 | O=C(O)C=Cc1c2ccc(=O)cc-2oc2cc(O)ccc12 [Compound 5] | 12% | 2% |  | 380 ± 120 nM | 120 ± 50 nM | 390 ± 150 nM | failure | failure |  | 
11 | O=C(O)CCc1c2ccc(=O)cc-2oc2cc(O)ccc12 [Compound 4] | 90% | 28% | measurable inhibition of the phosphatase activity, only when added at the highest concentration |  |  |  |  |  |  | 
12 | O=C(O)c1ccccc1-c1c2cc(I)c(=O)c(I)c-2oc2c(I)c(O)c(I)cc12 [Compound 15] | 79% | 18% | measurable inhibition of the phosphatase activity, only when added at the highest concentration |  |  |  |  |  |  | 
